Experimental findings from ChEMBL document CHEMBL1201862, “PubChem BioAssay data set” (2004) are described below.

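A five-concentration, 48-hour dose response in 96-well plates underlies each endpoint, interpolated linearly between surrounding concentrations. The concentration for 50% growth inhibition is given as GI50.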 Calls of active or inactive are those of the source. Rule as the data show it: active = GI50 up to about 1.1 µM and inactive = higher.

Among the test systems are A498; K562; Malme-3M; HCT-15; SF-539; OVCAR-5; M14; UACC-62; SW-620; HL-60; SK-OV-3; OVCAR-4; U-251; LOX IMVI; MOLT-4; NCI-H460; NCI-H226; HT-29; RXF 393.
Holding throughout (experiment): inhibition of tumour cell growth, NCI panel, 48 h

`O=C(NCCCOC(=O)CCCCCCCCC(=O)OCCCNC(=O)NC(=O)c1c[nH]c(=O)[nH]c1=O)NC(=O)c1c[nH]c(=O)[nH]c1=O`: the GI50 was > 100 µM (inactive) in the experiment with A498; > 100 µM (inactive) with K562; > 100 µM (inactive) in the experiment on Malme-3M; more than 100 µM in the experiment on HCT-15; > 100 µM (inactive) in the experiment on SF-539; > 100 µM (inactive) in the experiment with OVCAR-5. Besides, the GI50 with M14, with UACC-62, in the experiment on SW-620, in the experiment with HL-60, with SK-OV-3 and in the experiment with OVCAR-4 was > 100 µM (inactive) in each case. For the same compound, the GI50 with U-251, in the experiment on LOX IMVI, in the experiment with MOLT-4 and in the experiment with NCI-H460 was > 100 µM (inactive) in each case.
Take `Cn1nc2ccc3nccc(N(CCO)CCO)c3c2n1`: the GI50 was > 100 µM (inactive) in the experiment on NCI-H226; > 100 µM (inactive) in the experiment on A498; > 100 µM (inactive) with K562; > 100 µM (inactive) in the experiment on Malme-3M; more than 100 µM in the experiment on HCT-15; > 100 µM (inactive) with SF-539. For the same compound, the GI50 in the experiment on OVCAR-5, with M14, with HT-29, with UACC-62, with SW-620 and with RXF 393 was > 100 µM (inactive) in each case. Also, the GI50 in the experiment on HL-60, in the experiment on SK-OV-3, with U-251, in the experiment on LOX IMVI, with MOLT-4 and in the experiment with NCI-H460 was > 100 µM (inactive) throughout.
As for `COc1ccc(/C(Cl)=C(\C=O)c2ccc(Cl)c(Cl)c2)cc1`, the GI50 in the experiment with NCI-H226 was 13.2 µM (inactive); in the experiment on A498 it was 20.4 µM (inactive); in the experiment with K562 it was 4.04 µM (inactive); in the experiment on Malme-3M, 16.1 µM (inactive); with HCT-15 it was 4.6 µM; in the experiment on SF-539, 10.2 µM (inactive). Further, the GI50 with M14 is 13.7 µM (inactive); with HT-29, 4.37 µM (inactive); in the experiment with UACC-62 it was 8.2 µM (inactive); in the experiment on SW-620, 4.53 µM (inactive); with HL-60, 4.12 µM (inactive); in the experiment on SK-OV-3, 30.6 µM (inactive). Further, the GI50 is 5.66 µM (inactive) with U-251, 3.72 µM (inactive) with LOX IMVI, 2.6 µM (inactive) in the experiment with MOLT-4 and 5.25 µM (inactive) in the experiment on NCI-H460.
Take `O=S(OC12CC3CC(CC(C3)C1)C2)c1cc(Cl)cc(Cl)c1OCc1ccccc1` (stereo not given): the GI50 in the experiment with A498, with K562, in the experiment on Malme-3M, with SF-539, in the experiment on OVCAR-5 and in the experiment with M14 was > 100 µM (inactive) each time. Further, the GI50 with HT-29, in the experiment with UACC-62, in the experiment on RXF 393, in the experiment with HL-60, in the experiment on SK-OV-3 and with OVCAR-4 was > 100 µM (inactive) in each case. The GI50 with U-251, in the experiment with LOX IMVI, in the experiment with MOLT-4 and in the experiment with NCI-H460 was > 100 µM (inactive) throughout.
For the compound `CCN(CC)CC1CCCCCCCCCCC1=O` (stereo not given), the GI50 in the experiment on NCI-H226 is > 100 µM (inactive); in the experiment on A498, > 100 µM (inactive); in the experiment with K562, > 100 µM (inactive); in the experiment with Malme-3M, > 100 µM (inactive); in the experiment with HCT-15, more than 100 µM; in the experiment with OVCAR-5, > 100 µM (inactive). In addition, the GI50 in the experiment on M14, with HT-29, in the experiment with UACC-62, in the experiment on SW-620, in the experiment with HL-60 and in the experiment with OVCAR-4 was > 100 µM (inactive) throughout. For the same compound, the GI50 with U-251, in the experiment with LOX IMVI, in the experiment with MOLT-4 and with NCI-H460 was > 100 µM (inactive) throughout.
In the case of `CCC(CC)C(=O)OC[n+]1ccc(-c2c(COC(=O)NC(C)C)c(COC(=O)NC(C)C)c3n2CCC3)cc1`, the GI50 with NCI-H226 was > 100 µM (inactive); in the experiment with A498 it was > 100 µM (inactive); in the experiment with K562, > 100 µM (inactive); in the experiment with HCT-15, more than 100 µM; in the experiment on SF-539 it was > 100 µM (inactive); in the experiment with M14 it was > 100 µM (inactive). Also, the GI50 in the experiment on SW-620, with RXF 393, in the experiment on HL-60, with SK-OV-3, in the experiment on OVCAR-4 and with U-251 was > 100 µM (inactive) each time. For the same compound, the GI50 in the experiment on MOLT-4 is > 100 µM (inactive).
Consider `CC(C)OP(=O)(OC(C)C)c1nc(-c2ccccc2)n(-c2ccc([N+](=O)[O-])cc2)n1`, for which the GI50 in the experiment with NCI-H226 was 31.3 µM (inactive); with A498, > 100 µM (inactive); in the experiment on K562, 85.5 µM (inactive); in the experiment with Malme-3M, > 100 µM (inactive); in the experiment with HCT-15, more than 100 µM; with SF-539 it was > 100 µM (inactive). Further, the GI50 in the experiment with OVCAR-5 was > 100 µM (inactive); with M14, > 100 µM (inactive); with HT-29 it was > 100 µM (inactive); in the experiment with UACC-62, > 100 µM (inactive); with SW-620, > 100 µM (inactive); in the experiment on RXF 393, 0.0111 µM (active). For the same compound, the GI50 in the experiment on HL-60, with SK-OV-3, in the experiment on OVCAR-4, in the experiment on U-251, in the experiment on MOLT-4 and in the experiment with NCI-H460 was > 100 µM (inactive) in each case.
Regarding `COc1ccccc1CC(C)N` (stereo not given), the GI50 in the experiment on NCI-H226 was > 100 µM (inactive); with A498 it was > 100 µM (inactive); in the experiment on K562 it was > 100 µM (inactive); in the experiment on Malme-3M it was > 100 µM (inactive); in the experiment with HCT-15, more than 100 µM; in the experiment with SF-539, > 100 µM (inactive). For the same compound, the GI50 with OVCAR-5, in the experiment on M14, with HT-29, with UACC-62, in the experiment on SW-620 and in the experiment with RXF 393 was > 100 µM (inactive) each time. The GI50 with HL-60, with SK-OV-3, in the experiment on OVCAR-4, in the experiment on U-251, in the experiment with LOX IMVI and with NCI-H460 was > 100 µM (inactive) in each case.
For the compound `CC(=O)O/C=C(/C=C/OC(C)=O)C(C/C=C(\C)C#CC=C(C)C)OC(C)=O` (stereo not given), the GI50 in the experiment with NCI-H226 is > 100 µM (inactive); in the experiment on A498, > 100 µM (inactive); in the experiment on K562, 21 µM (inactive); in the experiment with Malme-3M, 72.6 µM (inactive); with HCT-15, 17.7 µM; with SF-539, 22.8 µM (inactive). Also, the GI50 with OVCAR-5 is > 100 µM (inactive); with M14, 34.1 µM (inactive); in the experiment on HT-29 it was 30.7 µM (inactive); in the experiment with UACC-62, 27.4 µM (inactive); in the experiment with SW-620 it was 42.3 µM (inactive); in the experiment on HL-60, 8.51 µM (inactive). In addition, the GI50 was > 100 µM (inactive) in the experiment on SK-OV-3; 38.4 µM (inactive) with OVCAR-4; 38.5 µM (inactive) with U-251; 26.1 µM (inactive) with LOX IMVI; 21.1 µM (inactive) in the experiment with MOLT-4; > 100 µM (inactive) in the experiment on NCI-H460.
Consider `CC(=O)CCC1(c2ccccc2)OC(=O)C(C#N)=C1c1ccccc1` (stereo not given), for which the GI50 with A498 was > 100 µM (inactive); in the experiment on K562 it was 50.6 µM (inactive); in the experiment on Malme-3M it was > 100 µM (inactive); with HCT-15, more than 100 µM; in the experiment with SF-539 it was > 100 µM (inactive); in the experiment on OVCAR-5, > 100 µM (inactive). The GI50 is > 100 µM (inactive) with M14; > 100 µM (inactive) with HT-29; > 100 µM (inactive) in the experiment with UACC-62; > 100 µM (inactive) in the experiment on SW-620; > 100 µM (inactive) with SK-OV-3; 80.4 µM (inactive) in the experiment on OVCAR-4. Further, the GI50 is 88.1 µM (inactive) in the experiment with U-251, > 100 µM (inactive) in the experiment on LOX IMVI, 33.7 µM (inactive) in the experiment with MOLT-4 and > 100 µM (inactive) in the experiment with NCI-H460.
Turning to `O=c1[nH]c(C2CCCCC2)nc2ccc(Cl)cc12`, the GI50 is > 100 µM (inactive) in the experiment on NCI-H226; > 100 µM (inactive) in the experiment on K562; > 100 µM (inactive) in the experiment on Malme-3M; more than 100 µM with HCT-15; > 100 µM (inactive) in the experiment on SF-539; > 100 µM (inactive) in the experiment on OVCAR-5. For the same compound, the GI50 with HT-29, in the experiment with UACC-62, in the experiment on SW-620, in the experiment on RXF 393, with SK-OV-3 and in the experiment with U-251 was > 100 µM (inactive) in each case. Moreover, in the experiment on MOLT-4, the GI50 is > 100 µM (inactive).
Consider `Cc1cn(C2CC(N(O)Cc3ccccc3)C(CO)O2)c(=O)[nH]c1=O` (stereo not given), for which the GI50 with NCI-H226 is > 100 µM (inactive); in the experiment on K562, > 100 µM (inactive); in the experiment on HCT-15 it was more than 100 µM; in the experiment with SF-539 it was > 100 µM (inactive); in the experiment on OVCAR-5 it was > 100 µM (inactive); in the experiment with M14 it was > 100 µM (inactive). The GI50 with HT-29, with UACC-62, in the experiment with SW-620, with RXF 393, in the experiment with HL-60 and in the experiment with SK-OV-3 was > 100 µM (inactive) in each case. Also, the GI50 in the experiment on OVCAR-4, in the experiment on U-251, in the experiment on LOX IMVI, in the experiment with MOLT-4 and with NCI-H460 was > 100 µM (inactive) each time.
